Assay [1] addresses T1, μ-opioid receptor (Homo sapiens (Human), UniProt P35372). The assay is described as follows: μ-opioid receptor radioligand dose-displacement binding assay ([3H]-diprenorphine). The note with it: binding affinity, μ-opioid receptor membranes. As for the experimental part: μ-opioid Receptor Binding Assay Procedures: Radioligand dose-displacement binding assays for μ-opioid receptors used 0.3 nM [^3H]-diprenorphine (Perkin Elmer, Shelton, Conn.), with […] membrane protein/well in a final volume of 500 μl binding buffer (10 mM MgCl2, 1 mM EDTA, 5% DMSO, 50 mM HEPES, pH 7.4). Reactions were carried out in the absence or presence of increasing concentrations of unlabeled naloxone. All reactions were conducted in 96-deep well polypropylene plates for 2 hr at room temperature. Binding reactions were terminated by rapid filtration onto 96-well Unifilter GF/C filter plates (Perkin Elmer, Shelton, Conn.), presoaked in 0.5% polyethylenimine using a 96-well tissue harvester (Perkin Elmer, Shelton, Conn.) followed by performing three filtration washes with 500 μl of ice-cold binding buffer. Filter plates were subsequently dried at 50° C. for 2-3 hours. BetaScint scintillation cocktail (Perkin Elmer, Shelton, Conn.) was added (50 μl/well), and plates were counted using a Packard Top-Count for 1 min/well. The data were analyzed using the one-site competition curve fitting functions in GraphPad PRISM™ v. 3.0 or higher (San Diego. Calif.), or an in-house function for one-site competition curve-fitting.

For assay [2], the target named is T2, κ opioid receptor (Homo sapiens (Human), UniProt P41145). Kind of assay: κ-opioid receptor radioligand dose-displacement binding assay ([3H]-U69,593). As to the method:
κ-opioid Receptor Binding Assay Procedures: Membranes from recombinant HEK-293 cells expressing the human κ opioid receptor (cloned in house) were prepared by lysing cells in ice cold hypotonic buffer (2.5 mM MgCl2, 50 mM HEPES, pH 7.4) (10 mL/10 cm dish) followed by homogenization with a tissue grinder/Teflon pestle. Membranes were collected by centrifugation at 30,000× g for 15 min at 4° C. and pellets were resuspended in hypotonic buffer to a final concentration of 1-3 mg/mL. Protein concentrations were determined using the BioRad protein assay reagent with bovine serum albumen as standard. Aliquots of κ receptor membranes were stored at −80° C.
Radioligand dose displacement assays used 0.4 nM [^3]-U69,593 (GE Healthcare, Piscataway, N.J.; 40 Ci/mmole) with 15 μg membrane protein (recombinant κ opioid receptor expressed in HEK 293 cells; in-house prep) in a final volume of 200 μl binding buffer (5% DMSO, 50 mM Trizma base, pH 7.4). Non-specific binding was determined in the presence of 10 μM unlabeled naloxone or U69,593. All reactions were performed in 96-well polypropylene plates for 1 hr at a temperature of about 25° C. Binding reactions were terminated by rapid filtration onto 96-well Unifilter GF/C filter plates (Perkin Elmer, Shelton, Conn.) presoaked in 0.5% polyethylenimine (Sigma). Harvesting was performed using a 96-well tissue harvester (Perkin Elmer, Shelton, Conn.) followed by five filtration washes with 200 μl ice-cold binding buffer. Filter plates were subsequently dried at 50° C. for 1-2 hours. Fifty μl/well scintillation cocktail (Perkin Elmer, Shelton, Conn.) was added and plates were counted in a Packard Top-Count for 1 min/well. Data were analyzed using the sigmoidal dose-response curve fitting functions in GraphPad PRISM™ v. 3.0, or an in-house function for non-linear, sigmoidal dose-response curve-fitting.
κ-opioid Receptor Binding Data: In certain embodiments, the Compounds of the Invention will have a Ki (nM) for κ receptors of about 10,000 or more (which, for purposes of this invention, is interpreted as having no binding to the κ receptors).

The target of assay [3] is T2, κ opioid receptor. The assay is described as follows: κ-opioid receptor [35S]GTPγS functional assay. The class given is biochemical. Conditions: for Emax: maximal effect relative to U69,593. As to the method:
κ-Opioid Receptor Functional Assay Procedures: Functional [^35S]GTPγS binding assays were conducted as follows, k opioid receptor membrane solution was prepared by sequentially adding final concentrations of 0.026 μg/μl κ membrane protein (in-house), 10 μg/mL saponin, 3 μM GDP and 0.20 [^35S]GTPγS to binding buffer (100 mM NaCl, 10 mM MgCl2, 20 mM HEPES, pH 7.4) on ice. The prepared membrane solution (190 μl/well) was transferred to 96-shallow well polypropylene plates containing 10 μl of 20× concentrated stock solutions of agonist prepared in DMSO. Plates were incubated for 30 min at a temperature of about 25° C. with shaking. Reactions were terminated by rapid filtration onto 96-well Unifilter GF/B filter plates (Perkin Elmer, Shelton, Conn.) using a 96-well tissue harvester (Packard) and followed by three filtration washes with 200 μl ice-cold binding buffer (10 mM NaH2PO4, 10 mM Na2HPO4, pH 7.4). Filter plates were subsequently dried at 50° C. for 2-3 hours. Fifty μl/well scintillation cocktail (Perkin Elmer, Shelton, Conn.) was added and plates were counted in a Packard Top-Count for 1 min/well. Data were analyzed using the sigmoidal dose-response curve fitting functions in GraphPad PRISM™ v. 3.0, or an in-house function for non-linear, sigmoidal dose-response curve-fitting.
κ-Opioid Receptor Functional Data: κ GTP EC50 is the concentration of a compound providing 50% of the maximal response for the compound at a κ receptor.
κ GTP Emax (%) is the maximal effect elicited by a compound relative to the effect elicited by U69,593.

In assay [4] the target is T1, μ-opioid receptor. The assay is described as follows: μ-opioid receptor [35S]GTPγS functional assay. The class given is biochemical. Conditions: for Emax: maximal effect relative to DAMGO. As for the experimental part: μ-Opioid Receptor Functional Assay Procedures: [^35S]GTPγS functional assays were conducted using freshly thawed μ-receptor membranes (Perkin Elmer, Shelton, Conn.). Assay reactions were prepared by sequentially adding the following reagents to binding buffer (100 mM NaCl, 10 mM MgCl2, 20 mM HEPES, pH 7.4) on ice (final concentrations indicated): membrane protein (0.026 mg/mL), saponin ([…]), GDP ([…]) and [^35S]GTPγS (0.20 nM; Perkin Elmer, Shelton, Conn.). The prepared membrane solution (190 μl/well) was transferred to 96-shallow well polypropylene plates containing 10 μl of 20× concentrated stock solutions of the agonist [D-Ala^2, N-methyl-Phe^4 Gly-ol^5]-enkephalin (DAMGO) prepared in dimethyl sulfoxide (DMSO). Plates were incubated for 30 min at about 25° C. with shaking. Reactions were terminated by rapid filtration onto 96-well Unifilter GF/B filter plates (Perkin Elmer, Shelton, Conn.) using a 96-well tissue harvester (Perkin Elmer, Shelton, Conn.) followed by three filtration washes with 200 μl of ice-cold wash buffer (10 mM NaH2PO4, 10 mM Na2HPO4, pH 7.4). Filter plates were subsequently dried at 50° C. for 2-3 hr, BetaScint scintillation cocktail (Perkin Elmer, Shelton, Conn.) was added (50 μl/well) and plates were counted using a Packard Top-Count for […]. Data were analyzed using the sigmoidal dose-response curve fitting functions in GraphPad PRISM™; v. 3.0, or an in-house function for non-linear, sigmoidal dose-response curve-fitting.
μ-Opioid Receptor Functional Data: μ GTP EC50 is the concentration of a compound providing 50% of the maximal response for the compound, at a μ-opioid receptor. […] In certain embodiments.
μ GTP Emax (%) is the maximal effect elicited by a compound relative to the effect elicited by DAMGO, a standard μ agonist. Generally, the μ GTP Emax (%) value measures the efficacy of a compound to treat or prevent pain or other Conditions.
(In general: Binding of GTPγS marks nucleotide exchange on a G protein.)

The mark [5] stands for this setting: binding affinity, recombinant κ opioid receptor expressed in HEK 293 cells, read-out: Ki (nM) Opioid Receptor κ.
Where [6] appears, read: κ GTP EC50, read-out: GTPγS κ EC50.
Where [7] appears, read: μ GTP EC50, read-out: GTPγS μ EC50.

Read-outs that look alike come from different tables or passages of the source.

One may read the Ki as the dissociation constant of the complex between target and ligand, obtained from inhibition or displacement. A word on the Emax: it is the maximal effect, on the per cent scale that the assay sets. For orientation: EC50 means the midpoint of the concentration-response curve. On to `O=C(O)CCC[C@]12CCN(CC3CC3)[C@H](Cc3ccc(O)cc31)[C@@H]2CC(=O)O` [Compound 10, 4-((2R,6R,11R)-11-(carboxymethyl)-3-(cyclopropylmethyl)-8-hydroxy-1,2,3,4,5,6-hexahydro-2,6-methanobenzo[d]azocin-6-yl)butanoic acid], for which the Ki at μ-opioid receptor [1] amounted to 977 ± 335 nM; at κ opioid receptor [2] (setting [5]), 64.5 ± 11.3 nM. In addition, the Emax is 31.3 ± 1.86% on κ opioid receptor [3] and 16 ± 3% on μ-opioid receptor [4]. In addition, the EC50 was found to be 275 ± 43.6 nM at κ opioid receptor [3] (setting [6]) and 70.5 ± 26.9 nM at μ-opioid receptor [4] (setting [7]).

As for `CN(C)C(=O)CCC[C@]12CCN(CC3CC3)[C@H](Cc3ccc(O)cc31)/C2=C\C(=O)O` [Compound 12, (Z)-2-((2R,6S)-3-(cyclopropylmethyl)-6-(4-(dimethylamino)-4-oxobutyl)-8-hydroxy-1,2,3,4,5,6-hexahydro-2,6-methanobenzo[d]azocin-11-ylidene)acetic acid], the Ki at μ-opioid receptor [1] worked out at 853 ± 199 nM; on κ opioid receptor [2] (setting [5]), 42.5 ± 4.24 nM. The Emax at κ opioid receptor [3] amounted to 74.7 ± 1.2%; at μ-opioid receptor [4], 48.7 ± 3.53%. Besides, the EC50 at κ opioid receptor [3] (setting [6]) was found to be 1000 ± 106 nM; on μ-opioid receptor [4] (setting [7]), 421 ± 140 nM.

On to `O=C(O)/C=C1\[C@H]2Cc3ccc(O)cc3[C@]1(CCCC(=O)O)CCN2CC1CC1` [Compound 13, 4-((2R,6S,Z)-11-(carboxymethylene)-3-(cyclopropylmethyl)-8-hydroxy-1,2,3,4,5,6-hexahydro-2,6-methanobenzo[d]azocin-6-yl)butanoic acid], for which the Ki at μ-opioid receptor [1] was 1340 ± 356 nM; at κ opioid receptor [2] (setting [5]), 66.8 ± 8.74 nM. For the same compound, the Emax at κ opioid receptor [3] came out at 74.3 ± 7.84%; at μ-opioid receptor [4], 44.3 ± 9.06%. The EC50 was 555 ± 61.1 nM on κ opioid receptor [3] (setting [6]) and 743 ± 195 nM at μ-opioid receptor [4] (setting [7]).

As for `COc1ccc2c(c1)[C@]1(CCO)CCN(CC3CC3)[C@H](C2)[C@@H]1CO` [Compound 19, 2-((2R,6S,11R)-3-(cyclopropylmethyl)-11-(hydroxymethyl)-8-methoxy-1,2,3,4,5,6-hexahydro-2,6-methanobenzo[d]azocin-6-yl)ethanol], on κ opioid receptor [2], the Ki was determined as 89.6 ± 33 nM. At κ opioid receptor [3], this compound displayed an EC50 of 1860 ± 231 nM and an Emax of 40.3 ± 5.36%. For the same compound, the EC50 at μ-opioid receptor [4] is above 20000 nM.

For `COc1ccc2c(c1)[C@]1(CC(N)=O)CCN(CC3CC3)[C@H](C2)[C@@H]1CO` [Compound 22, 2-((2R,6S,11R)-3-(cyclopropylmethyl)-11-(hydroxymethyl)-8-methoxy-1,2,3,4,5,6-hexahydro-2,6-methanobenzo[d]azocin-6-yl)acetamide], the Ki on κ opioid receptor [2] (setting [5]) stood at 79.1 ± 19.1 nM. The Emax turned out to be 41.7 ± 4.91% on κ opioid receptor [3] and 56 ± 3.61% at μ-opioid receptor [4]. The EC50 amounted to 2180 ± 326 nM on κ opioid receptor [3] (setting [6]) and 1280 ± 177 nM on μ-opioid receptor [4] (setting [7]).

The values are drawn from patent publication US9056836B2, “Benzomorphan analogs and the use thereof” (Purdue Pharma L.P., priority 2013, dated 2015).
